What was measured:
Assay type in all cases: in vivo
[1] = tested on: Anopheles funestus strain FUMOZ-R; assay: Anopheles funestus test (ANPHFU surface treatment & contact assay); settings: 24 hours after contact, read-out: efficacy (mortality); for mortality at 4 mg/m2: surface concentration 4 mg/m^2, 30 minutes exposure; for mortality at 20 mg/m2: surface concentration 20 mg/m^2, 30 minutes exposure
Summary of the method: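 Compound dissolved in acetone (2 mg/ml) with 2000 ppm rapeseed oil methyl ester, dried onto glazed tile; adult Anopheles funestus FUMOZ-R exposed for 30 minutes. Percent mortality scored 24 hours after contact.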

Phaedon cochleariae = Phaedon cochleariae spray test; settings: foliar, 168 h, Chinese cabbage leaf disks, after 7 days
Method: Phaedon cochleariae—Spray Test
(§1) To produce a suitable preparation of active compound, 1 part by weight of active compound is mixed with the stated amount of solvents and is diluted with water, containing an emulsifier concentration of 1000 ppm, to the desired concentration. Further test concentrations are prepared by dilution with emulsifier containing water.
Chinese cabbage (Brassica pekinensis) leaf disks are sprayed with a preparation of the active ingredient of the desired concentration. Once dry, the leaf disks are infested with mustard beetle larvae (Phaedon cochleariae).
After 7 days mortality in % is determined. 100% means all beetle larvae have been killed and 0% means none of the beetle larvae have been killed.

Ctenocephalides felis [2] = assay: Ctenocephalides felis oral test; settings: Ctenocephalides felis, in Bos taurus, po, 48 h
Summary of the method: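 About 20 adult unfed fleas fed through parafilm on cattle blood containing compound (DMSO concentrate diluted in blood); blood held at 37° C., fleas at room temperature. Mortality in % scored after 2 days (100% = all killed).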

[3] = tested on: Culex quinquefasciatus strain P00; assay: Culex quinquefasciatus test (CULXFA surface treatment & contact assay); settings: 24 hours after contact, read-out: efficacy (mortality); for mortality at 20 mg/m2: surface concentration 20 mg/m^2, 30 minutes exposure; for mortality at 4 mg/m2: surface concentration 4 mg/m^2, 30 minutes exposure
Summary of the method: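 Compound dissolved in acetone (2 mg/ml) with 2000 ppm rapeseed oil methyl ester, applied to glazed tile and dried. Adult strain P00 mosquitoes exposed to the surface for 30 minutes. Percent mortality scored 24 hours after contact.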

Myzus persicae [4] = assay: Myzus persicae oral test; settings: 120 h
Summary of the method: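 Feeding test: compound diluted in water was combined with IPL41 insect medium (33%+15% sugar) under a parafilm seal. A mixed population of green peach aphids fed through the membrane. Mortality (%) was scored after 5 days.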

[5] = tested on: Aedes aegypti strain MONHEIM; assay: Aedes aegypti test (AEDSAE surface treatment & contact assay); settings: 24 hours after contact, read-out: efficacy (mortality); for mortality at 4 mg/m2: surface concentration 4 mg/m^2, 30 minutes exposure; for mortality at 20 mg/m2: surface concentration 20 mg/m^2, 30 minutes exposure
Summary of the method: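 Compound dissolved in acetone (2 mg/ml) with 2000 ppm rapeseed oil methyl ester and dried onto a glazed tile. Adult mosquitoes held on the treated surface for 30 minutes exposure. Percent mortality scored 24 hours after contact.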

Rhipicephalus sanguineus = Rhipicephalus sanguineus in-vitro contact test with adult brown dog ticks; settings: 5 μg/cm^2 (=500 g/ha), after 48 hours; for pest or weed control at 5 µg/cm2, 5 µg/cm2: Rhipicephalus sanguineus, read-out: efficacy (ticks dead or moribund)
Method: Rhipicephalus sanguineus—In-Vitro Contact Test with Adult Brown Dog Ticks
9 mg compound is solved in 1 ml acetone and diluted with acetone to the desired concentration. 250 μl of the test solution is filled in 25 ml glass test tubes and homogeneously distributed on the inner walls by rotation and tilting on a shaking device (2 h at 30 rpm). With a compound concentration of 900 ppm, an inner surface of 44.7 cm^2 and a homogeneous distribution, a dose of 5 μg/cm^2 is achieved.
After the solvent has evaporated, each test tube is filled with 5-10 adult brown dog ticks (Rhipicephalus sanguineus), closed with a perforated lid and incubated in a lying position at room temperature and relative humidity. After 48 hours efficacy is determined. The ticks are patted on the ground of the tubes and are incubated on a heating plate at 45-50° C. for at most 5 minutes. Immotile or uncoordinated moving ticks, which are not able to escape the heat by climbing upwards, are marked as dead or moribund.
An efficacy of 100% means all ticks are dead or moribund; 0% means no ticks are dead or moribund.

Nezara viridula = Nezara viridula spray test; settings: in Hordeum vulgare, 96 h
Summary of the method: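 Barley plants infested with stink bug larvae were sprayed with compound diluted in water containing 1000 ppm emulsifier. Mortality (%) was scored after 4 days, 100% meaning all bugs killed.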

Boophilus microplus = Boophilus microplus injection test; settings: 20 μg/animal, egg deposition after 7 days; for pest or weed control at 0.02 mg: Rhipicephalus microplus, 168 h, read-out: efficacy (infertile eggs)
Summary of the method: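 Efficacy expresses the share of infertile eggs (100% all infertile, 0% all fertile), judged at 7 days or at hatching around day 42. Five adult engorged females were each injected abdominally with 1 μl of DMSO compound solution and incubated in a climate chamber.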

Nilaparvata lugens = Nilaparvata lugens spray test; settings: for mortality at 500 g/ha: Nilaparvata lugens, in Oryza sativa, 96 h
Summary of the method: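 Rice plants sprayed with compound diluted in water containing 1000 ppm emulsifier, then infested with brown planthopper. Mortality (%) scored after 4 days, 100% meaning all insects killed.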

Ctenocephalides felis [6] = assay: Ctenocephalides felis in-vitro contact test adult cat flea; settings: 5 μg/cm^2 (=500 g/ha), after 48 hours; for pest or weed control at 5 µg/cm2, 5 µg/cm2: Ctenocephalides felis, read-out: efficacy (fleas dead or moribund)
Summary of the method: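 Efficacy (% dead or moribund) was scored 48 h after adult Ctenocephalides felis were confined in tubes coated with the acetone-applied compound (900 ppm, 5 μg/cm^2). Moribund status was judged by failure to escape a 45-50° C heating plate within 5 minutes.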

Diabrotica balteata = Diabrotica balteata spray test; settings: 160 μg/well, wheat seeds, after 7 days; for pest or weed control at 160 µg/disc, 160 µg/well: Diabrotica balteata, 168 h, read-out: efficacy (seedlings grown)
Summary of the method: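 Efficacy (%) read 7 days after infesting treated seedlings with 10-20 banded cucumber beetle larvae, 100% meaning growth as in uninfected untreated control and 0% no growth. Test solutions in water containing 1000 ppm emulsifier were sprayed onto wheat seeds germinated for 1 day on agar.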

Spodoptera frugiperda = Spodoptera frugiperda spray test; settings: in Zea mays, 168 h
Summary of the method: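 Read-out: % larval mortality at day 7, where 100% means all killed and 0% none killed. Compound diluted in water with 1000 ppm emulsifier, sprayed onto Zea mays leaf sections; dried sections then infested with S. frugiperda larvae.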

[7] = tested on: Musca domestica strain WHO-N; assay: Musca domestica test (MUSCDO surface treatment & contact assay); settings: 24 hours after contact, read-out: efficacy (mortality); for mortality at 20 mg/m2: surface concentration 20 mg/m^2, 30 minutes exposure
Method: Musca domestica Test (MUSCDO Surface Treatment & Contact Assay)
Solvent: Aceton+2000 ppm rapeseed oil methyl ester (RME)
In order to produce a sufficient, active ingredient containing solution it is necessary to solve the test-compound in the solvent-mix (Acetone at 2 mg/ml/RME 2000 ppm). This solution is pipetted onto a glazed tile and after evaporation of the Acetone, adult flies of the species Musca domestica strain WHO-N are placed onto the dried surface. The exposure time is 30 minutes.
Mortality in percent (%) is determined 24 hours after contact to the treated surface. 100% mortality means that all test-insects are dead, whereas 0% means that not a single insect died.

Myzus persicae [8] = assay: Myzus persicae spray test; settings: in Brassica rapa, foliar, 120 h
Method: Myzus persicae—Spray Test
as §1
Chinese cabbage (Brassica pekinensis) leaf disks infected with all instars of the green peach aphid (Myzus persicae), are sprayed with a preparation of the active ingredient of the desired concentration.
After 5 days mortality in % is determined. 100% means all aphids have been killed and 0% means none of the aphids have been killed.

Row | Compound | mortality at 4 mg/m2 [1] [%] | mortality at 20 mg/m2 [1] [%] | mortality at 500 g/ha (Phaedon cochleariae) [%] | mortality at 100 ppm (Ctenocephalides felis [2]) [%] | mortality at 20 mg/m2 [3] [%] | mortality at 20 ppm (Myzus persicae [4]) [%] | mortality at 4 mg/m2 [5] [%] | mortality at 20 mg/m2 [5] [%] | pest or weed control at 5 µg/cm2, 5 µg/cm2 (Rhipicephalus sanguineus) [%] | mortality at 500 g/ha (Nezara viridula) [%] | pest or weed control at 0.02 mg (Boophilus microplus) [%] | mortality at 500 g/ha (Nilaparvata lugens) [%] | pest or weed control at 5 µg/cm2, 5 µg/cm2 (Ctenocephalides felis [6]) [%] | pest or weed control at 160 µg/disc, 160 µg/well (Diabrotica balteata) [%] | mortality at 4 ppm (Myzus persicae [4]) [%] | mortality at 500 g/ha (Spodoptera frugiperda) [%] | mortality at 20 mg/m2 [7] [%] | also measured
1 | CC(c1ncnn1-c1ncccn1)N(CC1CC1)C(=O)c1cccc(S(C)(=O)=O)c1 (stereo not drawn) [Example I-001] | 85 to 100 | 85 to 100 | 100 | 100 | 80 to 100 | 100 | 80 to 100 | 90 to 100 | 100 | 100 | 100 | 100 | 80 |  |  |  |  | 
2 | CC(c1ncnn1-c1ncccn1)N(CC1CC1)C(=O)c1cncc(S(C)(=O)=O)c1 (stereo not drawn) [Example I-002] |  |  |  | 100 |  |  |  |  | 80 | 100 | 100 |  | 100 |  |  |  |  | 
3 | CC(c1ncnn1-c1ncccn1)N(CC1CC1)C(=O)c1cc(Cl)cc(S(C)(=O)=O)c1 (stereo not drawn) [Example I-003, 3-chloro-N-(cyclopropylmethyl)-5-(methylsulfonyl)-N-{1-[1-(pyrimidin-2-yl)-1H-1,2,4-triazol-5-yl]ethyl}benzamide] |  |  | 100 | 100 |  | 100 |  |  | 100 | 100 | 100 | 100 | 100 | 100 | 90 |  |  | 
4 | CC(c1ncnn1-c1ncccn1)N(CC1CC1)C(=O)c1cc(C(F)(F)F)cc(Cl)c1F (stereo not drawn) [Example I-004] |  |  | 100 | 100 |  | 100 |  |  | 80 | 100 |  | 100 |  | 100 |  | 83 |  | 
5 | CC(c1ncnn1-c1ncccn1)N(CC1CC1)C(=O)c1cc(Cl)cc(S(=O)(=O)C(F)(F)F)c1 (stereo not drawn) [Example I-019] |  |  | 100 | 100 | 80 to 100 | 100 | 80 to 100 | 90 to 100 |  | 100 | 100 | 100 | 100 | 100 | 100 | 100 | 80 to 100 | mortality at 4 mg/m2 [3]: 80 to 100%
6 | CC(c1ncnn1-c1ncccn1)N(CC1CC1)C(=O)c1csc(Cl)c1 (stereo not drawn) [Example I-021] |  |  |  | 100 |  |  |  |  | 80 |  | 80 |  | 100 |  |  |  |  | 
7 | CC(c1ncnn1-c1ncccn1)N(CC1CC1)C(=O)c1cc(Cl)c(Cl)s1 (stereo not drawn) [Example I-024] | 85 to 100 | 85 to 100 | 100 | 100 |  | 100 |  | 90 to 100 |  |  | 100 | 100 | 100 | 100 | 100 |  |  | 
8 | CC(c1ncnn1-c1ncccn1)N(CC1CC1)C(=O)c1cc(C(F)(F)F)n(C)n1 (stereo not drawn) [Example I-025] | 85 to 100 | 85 to 100 | 83 | 100 | 80 to 100 | 100 |  | 90 to 100 |  | 100 | 100 | 100 | 100 | 100 |  |  | 80 to 100 | 
9 | CC(NC(=O)c1cc(Cl)cc(S(C)(=O)=O)c1)c1ncnn1-c1ncccn1 (stereo not drawn) [Example I-037] |  |  |  |  |  |  |  |  |  |  |  |  |  |  |  |  |  | efficacy (seedlings grown) (Diabrotica balteata): 100%; efficacy (ticks dead or moribund) (Rhipicephalus sanguineus): 80%; efficacy (infertile eggs) (Boophilus microplus): 100%; efficacy (fleas dead or moribund) (Ctenocephalides felis [6]): 100%
10 | CC(NC(=O)c1cc(F)cc(C2CC2)c1)c1ncnn1-c1ncccn1 (stereo not drawn) [Example I-045] |  |  |  |  |  |  |  |  |  |  |  |  |  |  |  |  |  | efficacy (seedlings grown) (Diabrotica balteata): 100%; efficacy (ticks dead or moribund) (Rhipicephalus sanguineus): 100%; efficacy (infertile eggs) (Boophilus microplus): 100%; mortality (Nilaparvata lugens; 500 g/ha, rice plants, after 4 days): 90%; efficacy (fleas dead or moribund) (Ctenocephalides felis [6]): 100%
11 | C[C@@H](NC(=O)c1cc(OC(F)(F)F)cc(C2CC2)c1)c1ncnn1-c1ccc(C#N)cn1 [Example I-053] |  |  |  | 100 |  |  | 80 to 100 | 90 to 100 | 100 |  |  |  |  | 100 |  | 100 | 80 to 100 | mortality at 4 mg/m2 ([7]; surface concentration 4 mg/m^2, 30 minutes exposure): 80 to 100%
12 | CSc1cc(Cl)cc(C(=O)N[C@H](C)c2ncnn2-c2ccc(C#N)cn2)c1 [Example I-066] | 85 to 100 | 85 to 100 |  | 100 | 80 to 100 |  | 80 to 100 | 90 to 100 | 80 | 100 |  |  | 100 | 100 | 90 | 100 | 80 to 100 | mortality at 500 g/ha (Myzus persicae [8]): 90%; mortality at 4 mg/m2 [3]: 80 to 100%
